Laboratory results published in PubChem BioAssay (NCI).
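GI50: concentration for 50% inhibition of growth. The concentration for full growth arrest is given as TGI.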

What was measured:
Assay in all cases: inhibition of tumour cell growth, NCI panel, 384-well format
SNB-19 CNS = test system: SNB-19 CNS
HOP-62 NSCLC = test system: HOP-62 NSCLC
A549 NSCLC = test system: A549 NSCLC
MCF7 breast = test system: MCF7 breast
NCI-H23 lung = test system: NCI-H23 lung
SN12C renal = test system: SN12C renal
MALME-3M melanoma = test system: MALME-3M melanoma
CAKI-1 renal = test system: CAKI-1 renal
OVCAR-4 ovarian = test system: OVCAR-4 ovarian
BT-549 breast = test system: BT-549 breast
K-562 leukemia = test system: K-562 leukemia
SK-OV-3 ovarian = test system: SK-OV-3 ovarian
DU-145 prostate = test system: DU-145 prostate
KM12 colon = test system: KM12 colon
NCI/ADR-RES ovarian = test system: NCI/ADR-RES ovarian
NCI-H322M lung = test system: NCI-H322M lung
U251 glioblastoma = test system: U251 glioblastoma
SK-MEL-2 melanoma = test system: SK-MEL-2 melanoma
ACHN renal = test system: ACHN renal
PC-3 prostate = test system: PC-3 prostate
HOP-92 NSCLC = test system: HOP-92 NSCLC
UACC-62 melanoma = test system: UACC-62 melanoma
SF-539 CNS = test system: SF-539 CNS
HCT-15 colon = test system: HCT-15 colon
SW-620 colon = test system: SW-620 colon
NCI-H226 lung = test system: NCI-H226 lung
HL-60(TB) leukemia = test system: HL-60(TB) leukemia
MDA-MB-435 melanoma = test system: MDA-MB-435 melanoma
M14 melanoma = test system: M14 melanoma
RPMI-8226 leukemia = test system: RPMI-8226 leukemia
LOX IMVI melanoma = test system: LOX IMVI melanoma
RXF 393 renal = test system: RXF 393 renal
SK-MEL-28 melanoma = test system: SK-MEL-28 melanoma
SNB-75 CNS = test system: SNB-75 CNS
OVCAR-3 ovarian = test system: OVCAR-3 ovarian
MOLT-4 leukemia = test system: MOLT-4 leukemia
NCI-H522 lung = test system: NCI-H522 lung
SF-295 CNS = test system: SF-295 CNS
SF-268 CNS = test system: SF-268 CNS
EKVX NSCLC = test system: EKVX NSCLC
786-0 renal = test system: 786-0 renal
CCRF-CEM leukemia = test system: CCRF-CEM leukemia
IGROV1 ovarian = test system: IGROV1 ovarian
COLO 205 colon = test system: COLO 205 colon
A498 renal = test system: A498 renal
OVCAR-8 ovarian = test system: OVCAR-8 ovarian
UACC-257 melanoma = test system: UACC-257 melanoma
MDA-MB-468 breast = test system: MDA-MB-468 breast
NCI-H460 NSCLC = test system: NCI-H460 NSCLC
HS 578T breast = test system: HS 578T breast
HCT-116 colon = test system: HCT-116 colon
HT29 colon = test system: HT29 colon
TK-10 renal = test system: TK-10 renal
SK-MEL-5 melanoma = test system: SK-MEL-5 melanoma

SMILES: CCCOC(=O)c1nc(N(CC2CCCCC2)C(=O)NC)sc1/N=C/c1ccccc1
- GI50 (SNB-19 CNS): 5.73 µM
- TGI (SNB-19 CNS): 17.4 µM
- GI50 (HOP-62 NSCLC): 2.45 µM
- TGI (HOP-62 NSCLC): 7.26 µM
- GI50 (A549 NSCLC): 9.71 µM
- TGI (A549 NSCLC): 22 µM
- GI50 (MCF7 breast): 2.66 µM
- TGI (MCF7 breast): 7.98 µM
- GI50 (NCI-H23 lung): 3.39 µM
- TGI (NCI-H23 lung): 11.4 µM
- GI50 (SN12C renal): 6.86 µM
- TGI (SN12C renal): 19.6 µM
- GI50 (MALME-3M melanoma): 3.51 µM
- TGI (MALME-3M melanoma): 9.53 µM
- GI50 (CAKI-1 renal): 5.18 µM
- TGI (CAKI-1 renal): 18.1 µM
- GI50 (OVCAR-4 ovarian): 2.74 µM
- TGI (OVCAR-4 ovarian): 12.5 µM
- GI50 (BT-549 breast): 4.02 µM
- TGI (BT-549 breast): 12.4 µM
- GI50 (K-562 leukemia): 3.37 µM
- TGI (K-562 leukemia): 10.7 µM
- GI50 (SK-OV-3 ovarian): 3.49 µM
- TGI (SK-OV-3 ovarian): 14.7 µM
- GI50 (DU-145 prostate): 12.3 µM
- TGI (DU-145 prostate): 27.5 µM
- GI50 (KM12 colon): 3.26 µM
- TGI (KM12 colon): 11.8 µM
- GI50 (NCI/ADR-RES ovarian): 2.51 µM
- TGI (NCI/ADR-RES ovarian): 8.09 µM
- GI50 (NCI-H322M lung): 31.3 µM
- TGI (NCI-H322M lung): > 100 µM
- GI50 (U251 glioblastoma): 7.26 µM
- TGI (U251 glioblastoma): 21.2 µM
- GI50 (SK-MEL-2 melanoma): 2.34 µM
- TGI (SK-MEL-2 melanoma): 4.27 µM
- GI50 (ACHN renal): 9.87 µM
- TGI (ACHN renal): 21.9 µM
- GI50 (PC-3 prostate): 3.58 µM
- TGI (PC-3 prostate): 12.8 µM
- GI50 (HOP-92 NSCLC): 4.36 µM
- TGI (HOP-92 NSCLC): 14.6 µM
- GI50 (UACC-62 melanoma): 3.48 µM
- TGI (UACC-62 melanoma): 14 µM
- GI50 (SF-539 CNS): 4.85 µM
- TGI (SF-539 CNS): 16.6 µM
- GI50 (HCT-15 colon): 2.83 µM
- TGI (HCT-15 colon): 8.63 µM
- GI50 (SW-620 colon): 3.5 µM
- TGI (SW-620 colon): 13.5 µM
- GI50 (NCI-H226 lung): 5.1 µM
- TGI (NCI-H226 lung): 18.1 µM
- GI50 (HL-60(TB) leukemia): 1.73 µM
- TGI (HL-60(TB) leukemia): 3.11 µM
- GI50 (MDA-MB-435 melanoma): 1.79 µM
- TGI (MDA-MB-435 melanoma): 4.03 µM
- GI50 (M14 melanoma): 3.46 µM
- TGI (M14 melanoma): 10.9 µM
- GI50 (RPMI-8226 leukemia): 1.61 µM
- TGI (RPMI-8226 leukemia): 3.22 µM
- GI50 (LOX IMVI melanoma): 3.83 µM
- TGI (LOX IMVI melanoma): 11.3 µM
- GI50 (RXF 393 renal): 2.65 µM
- TGI (RXF 393 renal): 5.99 µM
- GI50 (SK-MEL-28 melanoma): 5.74 µM
- TGI (SK-MEL-28 melanoma): 16.9 µM
- GI50 (SNB-75 CNS): 2.55 µM
- TGI (SNB-75 CNS): 7.92 µM
- GI50 (OVCAR-3 ovarian): 2.01 µM
- TGI (OVCAR-3 ovarian): 4.27 µM
- GI50 (MOLT-4 leukemia): 1.76 µM
- TGI (MOLT-4 leukemia): 3.2 µM
- GI50 (NCI-H522 lung): 1.8 µM
- TGI (NCI-H522 lung): 5.05 µM
- GI50 (SF-295 CNS): 2.16 µM
- TGI (SF-295 CNS): 5.51 µM
- GI50 (SF-268 CNS): 5.35 µM
- TGI (SF-268 CNS): 15.5 µM
- GI50 (EKVX NSCLC): 8.12 µM
- TGI (EKVX NSCLC): 20.7 µM
- GI50 ([…]-0 renal): 6.22 µM
- TGI (786-0 renal): 18.7 µM
- GI50 (CCRF-CEM leukemia): 2.03 µM
- TGI (CCRF-CEM leukemia): 3.76 µM
- GI50 (IGROV1 ovarian): 3.71 µM
- TGI (IGROV1 ovarian): 14.4 µM
- GI50 (COLO 205 colon): 4.56 µM
- TGI (COLO 205 colon): 16.1 µM
- GI50 (A498 renal): 4.1 µM
- TGI (A498 renal): 14.7 µM
- GI50 (OVCAR-8 ovarian): 10.7 µM
- TGI (OVCAR-8 ovarian): 23.1 µM
- GI50 (UACC-257 melanoma): 7.33 µM
- TGI (UACC-257 melanoma): 29.1 µM
- GI50 (MDA-MB-468 breast): 2.13 µM
- TGI (MDA-MB-468 breast): 4.05 µM
- GI50 (NCI-H460 NSCLC): 2.56 µM
- TGI (NCI-H460 NSCLC): 6.26 µM
- GI50 (HS 578T breast): 2.22 µM
- TGI (HS 578T breast): 5.66 µM
- GI50 (HCT-116 colon): 3.2 µM
- TGI (HCT-116 colon): 9.48 µM
- GI50 (HT29 colon): 2.58 µM
- TGI (HT29 colon): 6.98 µM
- GI50 (TK-10 renal): 8.53 µM
- TGI (TK-10 renal): 21.8 µM
- GI50 (SK-MEL-5 melanoma): 2.43 µM
- TGI (SK-MEL-5 melanoma): 11.3 µM
